The source of these data is US10150737B2, “Compounds for controlling arthropods” (priority 2013, dated 2018).

The nature of data set [1]: logP determination by HPLC on a reversed-phase column (C18). It counts as physicochemical. Particulars: for logP^a): HPLC-MS method a); for log P: HPLC-MS.
In the next data set the test system is Boophilus microplus. Description: Boophilus microplus - injection test. The class given is in vivo. Conditions: application rate 20 μg/animal; injection into engorged adult female ticks; after 7 days. The method in brief:
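Five engorged adult female cattle ticks each received a 1 μl abdominal injection of compound solution in dimethyl sulphoxide. Fertile egg laying was assessed at 7 days, with doubtful eggs incubated about 42 days until hatch. 0% efficacy means all eggs fertile.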

Data set [2] deals with Ctenocephalides felis. In words: Ctenocephalides felis - oral test. Particulars: application rate 100 ppm in citrated cattle blood; after 2 days. It counts as in vivo. The method in brief:
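Roughly 20 unfed adult C. felis imbibe compound-dosed citrated cattle blood (DMSO formulation) across parafilm from a cylinder above their gauze chamber; percentage mortality recorded at day 2.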

For the next data set, the system named is Lucilia cuprina. In words: Lucilia cuprina test. It counts as in vivo. Conditions: application rate 100 ppm; L1 larvae; after 2 days. The method, then:
(§1) Solvent: dimethyl sulphoxide
(§2) To produce an appropriate active ingredient formulation, 10 mg of active ingredient are mixed with 0.5 ml of dimethyl sulphoxide, and the concentrate is diluted with water to the desired concentration.
About 20 L1 larvae of the Australian sheep blowfly (Lucilia cuprina) are transferred into a test vessel containing minced horsemeat and the active ingredient preparation of the desired concentration.
After 2 days, the kill in % is determined. 100% means that all the larvae have been killed; 0% means that none of the larvae have been killed.

The test system of the next data set is Musca domestica. Description: Musca domestica test. The class given is in vivo. Particulars: application rate 100 ppm; adult houseflies; after 2 days. The method, then:
as §1, §2
Vessels containing a sponge treated with sugar solution and the active ingredient formulation of the desired concentration are populated with 10 adult houseflies (Musca domestica).
After 2 days, the kill in % is determined. 100% means that all of the flies have been killed; 0% means that none of the flies have been killed.

A further data set deals with Phaedon cochleariae. In words: Phaedon cochleariae - spray test. The class given is in vivo. Conditions: larvae on Chinese cabbage leaf discs, after 7 days. The essentials: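 Mortality of mustard beetle larvae was scored as % at day 7 on Brassica pekinensis leaf discs. Discs had been treated by spraying at the desired concentration, using an acetone/dimethylformamide solution diluted in water with 1000 ppm alkylaryl polyglycol ether, and dried before larvae were added.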

In the next data set the test system is Spodoptera frugiperda. In words: Spodoptera frugiperda - spray test. It counts as in vivo. Conditions: caterpillars on maize leaf discs, after 7 days. The method in brief:
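Percent mortality of Spodoptera frugiperda caterpillars scored 7 days after placing them on dried maize leaf discs sprayed at the desired concentration. Spray formulation: compound dissolved in acetone/dimethylformamide, made up with water containing 1000 ppm emulsifier.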

In the next data set the test system is Tetranychus urticae. In words: Tetranychus urticae - spray test, OP-resistant. The class given is in vivo. Particulars: bean leaf discs, after 6 days. The method in brief:
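Mortality (%) read on day 6 after spraying Phaseolus vulgaris leaf discs carrying all mite stages with formulations at the desired concentration. Formulation: active ingredient in acetone plus dimethylformamide, made up with emulsifier-containing water (1000 ppm alkylaryl polyglycol ether).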

Data set [3] has as its system Ctenocephalides felis. In words: Ctenocephalides felis - in vitro contact tests with adult cat fleas. The class given is in vivo. Particulars: application rate 5 μg/cm2 (=500 g/ha); after 48 h; fleas dead or moribund. The method, then: For the coating of the test tubes, 9 mg of active ingredient are first dissolved in 1 ml of acetone p.a. and then diluted to the desired concentration with acetone p.a. 250 μl of the solution are distributed homogeneously on the inner walls and base of a 25 ml test tube by turning and rocking on an orbital shaker (rocking rotation at 30 rpm for 2 h). With 900 ppm active ingredient solution and internal surface area 44.7 cm^2, given homogeneous distribution, an area-based dose of 5 μg/cm^2 is achieved.
After the solvent has evaporated off, the tubes are populated with 5-10 adult cat fleas (Ctenocephalides felis), sealed with a perforated plastic lid and incubated in a horizontal position at room temperature and ambient humidity. After 48 h, efficacy is determined. To this end, the test tubes are stood upright and the fleas are knocked to the base of the tube. Fleas which remain motionless at the base or move in an uncoordinated manner are considered to be dead or moribund.
100% efficacy means that all the fleas were dead or moribund. 0% efficacy means that no fleas were harmed.

Where [4] appears, read: reversed-phase column (C18), Table I-T3.

Regarding `Cc1cc(C(F)(C(F)(F)F)C(F)(F)F)cc(C)c1-n1cc(-c2ccc(Cl)c(C(=O)NCC(F)(F)F)c2)cn1` [I-T3-2], the “logP^a)” value in [1] and in [1] (setting [4]) was 4.7 each time. For the same molecule, the “efficacy (laying of fertile eggs)” value in the data set with Boophilus microplus came out at 100%. For the same molecule, the “efficacy (kill)” value in the data set on Ctenocephalides felis [2], in the data set on Lucilia cuprina and in the data set on Musca domestica was 100% in each case. For the same molecule, the efficacy in the data set with Phaedon cochleariae (application rate 100 g/ha), with Spodoptera frugiperda (application rate 100 g/ha) and in the data set on Tetranychus urticae (application rate 100 g/ha) was 100% in each case.
For `Cc1cc(C(F)(C(F)(F)F)C(F)(F)F)cc(C)c1-n1cc(-c2ccc(Cl)c(C(=O)NC3CSC3)c2)cn1` [I-T3-4], the “logP^a)” value in data set [1] and in [1] (setting [4]) was 4.7 throughout. For the same molecule, the “efficacy (laying of fertile eggs)” value in the data set with Boophilus microplus is reported as 100%. Further, the “efficacy (kill)” value in the data set on Ctenocephalides felis [2], in the data set with Lucilia cuprina and in the data set with Musca domestica was 100% throughout. The efficacy in the data set with Phaedon cochleariae (application rate 100 g/ha), in the data set on Spodoptera frugiperda (application rate 100 g/ha) and in the data set with Tetranychus urticae (application rate 100 g/ha) was 100% in each case.
For `Cc1cc(C(F)(C(F)(F)F)C(F)(F)F)cc(C)c1-n1cc(-c2cc(C(=O)NC3CC3)ccc2F)cn1` [I-T3-13], the “logP^a)” value in [1] and in data set [1] (setting [4]) was 4.5 each time. For the same molecule, the efficacy with Ctenocephalides felis [3] was determined as 100%. Further, the “efficacy (laying of fertile eggs)” value in the data set on Boophilus microplus is 100%. Also, in the data set on Ctenocephalides felis [2], the “efficacy (kill)” value was determined as 80%.
With `Cc1cc(C(F)(C(F)(F)F)C(F)(F)F)cc(C)c1-n1cc(-c2cc(C(=O)NC3(C#N)CC3)c(Cl)cc2F)cn1` [I-T3-17], the “logP^a)” value in [1] and in data set [1] (setting [4]) was 4.4 in each case. For the same molecule, the efficacy with Ctenocephalides felis [3], with Phaedon cochleariae (application rate 500 g/ha) and in the data set on Spodoptera frugiperda (application rate 500 g/ha) was 100% in each case. The “efficacy (laying of fertile eggs)” value in the data set on Boophilus microplus came to 100%. The “efficacy (kill)” value in the data set with Ctenocephalides felis [2] is given as 95%; with Lucilia cuprina, 100%.
Consider `N#CC1(NC(=O)c2cc(-c3cnn(-c4ccc(C(F)(C(F)(F)F)C(F)(F)F)cc4OC(F)(F)F)c3)ccc2Cl)CC1` [I-T3-34], for which the “logP^a)” value in data set [1] and in data set [1] (setting [4]) was 4.6 each time. In the data set on Boophilus microplus, the “efficacy (laying of fertile eggs)” value amounted to 100%. In addition, the “efficacy (kill)” value in the data set with Ctenocephalides felis [2], with Lucilia cuprina and in the data set with Musca domestica was 100% throughout. Moreover, the efficacy in the data set with Phaedon cochleariae (application rate 500 g/ha), in the data set with Spodoptera frugiperda (application rate 500 g/ha) and in the data set with Tetranychus urticae (application rate 500 g/ha) was 100% each time.
For the molecule `O=C(NCC(F)(F)F)c1cc(-c2cnn(-c3c(Cl)cc(C(F)(C(F)(F)F)C(F)(F)F)cc3C(F)(F)F)c2)ccc1Cl` [I-T3-58], the “logP^a)” value in data set [1] and in data set [1] (setting [4]) was 4.7 in each case. For the same molecule, the “efficacy (laying of fertile eggs)” value in the data set with Boophilus microplus is on record as 100%. In addition, the “efficacy (kill)” value in the data set with Ctenocephalides felis [2], in the data set on Lucilia cuprina and in the data set on Musca domestica was 100% throughout. The efficacy in the data set with Phaedon cochleariae (application rate 100 g/ha), in the data set on Spodoptera frugiperda (application rate 100 g/ha) and with Tetranychus urticae (application rate 100 g/ha) was 100% each time.
Consider `N#CC1(NC(=O)c2cc(-c3cnn(-c4c(F)cc(C(F)(C(F)(F)F)C(F)(F)F)cc4F)c3)ccc2Cl)CC1` [I-T3-62], for which the “logP^a)” value in data set [1] and in data set [1] (setting [4]) was 3.9 in each case. For the same molecule, in the data set with Boophilus microplus, the “efficacy (laying of fertile eggs)” value is on record as 100%. Also, the “efficacy (kill)” value with Ctenocephalides felis [2], with Lucilia cuprina and in the data set with Musca domestica was 100% throughout. Also, the efficacy in the data set with Phaedon cochleariae (application rate 100 g/ha), in the data set on Spodoptera frugiperda (application rate 100 g/ha) and in the data set on Tetranychus urticae (application rate 100 g/ha) was 100% each time.
As to `Cc1cc(C(F)(C(F)(F)F)C(F)(F)F)cc(C)c1-n1cc(-c2ccc(Cl)c(C(=O)NC3(C#N)CC3)c2F)cn1` [I-T3-65], the “logP^a)” value in [1] is listed as 4.4; in data set [1] (setting [4]), 4.3. Moreover, the “efficacy (laying of fertile eggs)” value with Boophilus microplus is 100%. Also, the “efficacy (kill)” value with Ctenocephalides felis [2], with Lucilia cuprina and in the data set with Musca domestica was 100% throughout. Further, the efficacy is on record as 100% in the data set on Phaedon cochleariae (application rate 500 g/ha), 100% in the data set with Spodoptera frugiperda (application rate 500 g/ha) and 90% in the data set on Tetranychus urticae (application rate 500 g/ha).
Take `O=C(NC1CC1)c1c(Cl)ccc(-c2cnn(-c3c(Cl)cc(C(F)(C(F)(F)F)C(F)(F)F)cc3Cl)c2)c1F` [I-T3-73]: the “logP^a)” value in data set [1] and in data set [1] (setting [4]) was 4.5 each time. In addition, the “efficacy (laying of fertile eggs)” value with Boophilus microplus turned out to be 100%. For the same molecule, the “efficacy (kill)” value in the data set on Ctenocephalides felis [2], in the data set on Lucilia cuprina and in the data set with Musca domestica was 100% in each case. Moreover, the efficacy in the data set with Phaedon cochleariae (application rate 500 g/ha), in the data set on Spodoptera frugiperda (application rate 500 g/ha) and with Tetranychus urticae (application rate 100 g/ha) was 100% in each case.
Turning to `N#CC1(NC(=O)c2cc(-c3cnn(-c4ccc(OC(F)(F)F)cc4Cl)c3)ccc2Cl)CC1` [I-T3-89], the “logP^a)” value in [1] and in [1] (setting [4]) was 3.5 in each case. Further, in the data set with Boophilus microplus, the “efficacy (laying of fertile eggs)” value was determined as 100%. Besides, the “efficacy (kill)” value in the data set on Ctenocephalides felis [2], in the data set with Lucilia cuprina and in the data set on Musca domestica was 100% throughout. Besides, the efficacy is reported as 100% in the data set with Phaedon cochleariae (application rate 500 g/ha), 100% with Spodoptera frugiperda (application rate 500 g/ha) and 90% in the data set with Tetranychus urticae (application rate 500 g/ha).
For `COCCNc1ncc(-c2cnn(-c3c(Cl)cc(C(F)(C(F)(F)F)C(F)(F)F)cc3Cl)c2)cc1C(=O)NC1CC1` [I-T3-138], in data set [1] (reversed-phase column (C18)), the “logP^a)” value is recorded as 4.1. Besides, in data set [1] (setting [4]), the “log P” value came to 4.1. Also, the efficacy with Ctenocephalides felis [3] stood at 100%; in the data set with Phaedon cochleariae (application rate 100 g/ha), 83%; in the data set on Spodoptera frugiperda (application rate 100 g/ha), 100%; in the data set on Tetranychus urticae (application rate 100 g/ha), 90%.
Consider `Cc1cc(C(F)(C(F)(F)F)C(F)(F)F)cc(C)c1-n1cc(-c2cnc(C3CC3)c(C(=O)NC3(C#N)CC3)c2)cn1` [I-T3-139], for which, in [1] (reversed-phase column (C18)), the “logP^a)” value is listed as 4.1. For the same molecule, the “log P” value in data set [1] (setting [4]) was determined as 4.1. Besides, the “efficacy (laying of fertile eggs)” value with Boophilus microplus is given as 100%. The entries for the “efficacy (kill)” value in the data set on Ctenocephalides felis [2], with Lucilia cuprina and with Musca domestica were 100%, 100% and 90%, respectively. Further, the efficacy in the data set with Phaedon cochleariae (application rate 100 g/ha), in the data set with Spodoptera frugiperda (application rate 100 g/ha) and in the data set with Tetranychus urticae (application rate 100 g/ha) was 100% throughout.
Consider `CCNC(=O)c1cc(-c2cnn(-c3c(Cl)cc(C(F)(F)F)cc3Cl)c2)cnc1C` [I-T3-147], for which, in data set [1] (reversed-phase column (C18)), the “logP^a)” value is 4.0. Besides, in data set [1] (setting [4]), the “log P” value is reported as 4.0. The efficacy in the data set with Ctenocephalides felis [3] came out at 100%; in the data set with Tetranychus urticae (application rate 100 g/ha) it was 90%.
On to `N#CC1(NC(=O)c2cc(-c3cnn(-c4ncc(C(F)(C(F)(F)F)C(F)(F)F)cc4Cl)c3)ccc2Cl)CC1` [I-T3-151], for which the “logP^a)” value in data set [1] (reversed-phase column (C18)) came out at 4.0. Also, the “log P” value in [1] (setting [4]) is 4.0. In the data set with Boophilus microplus, the “efficacy (laying of fertile eggs)” value stood at 100%. The “efficacy (kill)” value in the data set with Ctenocephalides felis [2], in the data set on Lucilia cuprina and in the data set on Musca domestica was 100% in each case. The figures for the efficacy with Phaedon cochleariae (application rate 100 g/ha), in the data set with Spodoptera frugiperda (application rate 100 g/ha) and in the data set on Tetranychus urticae (application rate 100 g/ha) were 100%, 100% and 90%, respectively.
For `N#CC1(CNC(=O)c2cc(-c3cnn(-c4c(Cl)cc(C(F)(C(F)(F)F)C(F)(F)F)cc4C(F)(F)F)c3)ccc2Cl)CC1` [I-T3-199], the efficacy in the data set with Ctenocephalides felis [3] worked out at 100%.

By log P is commonly meant a log measure of how a compound divides between an organic and an aqueous phase.
